Experimental data: patent US12662491B2 (Redona Therapeutics, Inc., priority 2020, dated 2026)
Structures can show the parent of a compound that is named as a salt.

What follows are molecules tested against T1, Zcchc11 enzyme (Homo sapiens, UniProt Q5TAX3) (assay: TUTase assay (Zcchc11 assay, Lin28a-dependent polyuridylation of pre-let-7)). Conditions: Lin28a-dependent Zcchc11 (Z11) TUTase assay; read-out: Potency Lin28a-dep Z11 IC50.
T1 construct: made in house; host or cells: HEK293 cells (Zcchc11); E. coli Rosetta II (LIN28A)
T1 sequence (Q5TAX3 212-1420): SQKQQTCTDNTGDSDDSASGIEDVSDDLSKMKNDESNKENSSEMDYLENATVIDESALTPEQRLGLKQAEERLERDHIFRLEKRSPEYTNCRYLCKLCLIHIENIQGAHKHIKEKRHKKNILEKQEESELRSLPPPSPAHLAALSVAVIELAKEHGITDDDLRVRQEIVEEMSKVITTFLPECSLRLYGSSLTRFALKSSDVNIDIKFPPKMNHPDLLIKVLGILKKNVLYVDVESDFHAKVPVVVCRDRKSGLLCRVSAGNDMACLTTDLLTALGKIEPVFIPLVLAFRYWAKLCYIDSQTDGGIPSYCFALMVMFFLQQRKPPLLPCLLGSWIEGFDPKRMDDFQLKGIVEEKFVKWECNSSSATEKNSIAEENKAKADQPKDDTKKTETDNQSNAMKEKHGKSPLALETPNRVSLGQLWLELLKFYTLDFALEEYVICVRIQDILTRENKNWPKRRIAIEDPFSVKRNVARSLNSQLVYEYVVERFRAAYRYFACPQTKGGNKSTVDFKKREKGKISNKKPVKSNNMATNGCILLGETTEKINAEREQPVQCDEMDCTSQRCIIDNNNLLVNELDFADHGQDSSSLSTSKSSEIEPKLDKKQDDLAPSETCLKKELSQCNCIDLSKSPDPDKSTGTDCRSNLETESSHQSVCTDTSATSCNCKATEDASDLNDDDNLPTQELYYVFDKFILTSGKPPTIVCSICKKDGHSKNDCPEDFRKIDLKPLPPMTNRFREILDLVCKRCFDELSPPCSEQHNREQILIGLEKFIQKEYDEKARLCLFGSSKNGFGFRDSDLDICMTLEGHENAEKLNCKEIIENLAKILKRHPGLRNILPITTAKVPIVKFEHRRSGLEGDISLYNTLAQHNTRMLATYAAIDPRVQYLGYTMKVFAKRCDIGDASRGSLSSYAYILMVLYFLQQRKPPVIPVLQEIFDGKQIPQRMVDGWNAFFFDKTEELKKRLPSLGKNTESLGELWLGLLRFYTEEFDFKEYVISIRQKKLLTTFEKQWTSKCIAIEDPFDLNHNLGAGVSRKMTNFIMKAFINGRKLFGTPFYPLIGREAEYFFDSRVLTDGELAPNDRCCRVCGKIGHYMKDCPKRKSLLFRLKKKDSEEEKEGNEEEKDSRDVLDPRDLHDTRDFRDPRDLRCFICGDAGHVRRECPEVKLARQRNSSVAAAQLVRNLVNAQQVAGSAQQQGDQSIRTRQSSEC
Format: biochemical
Method in brief: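 Potency is measured as inhibition of LIN28A-driven U-tail addition to 2 nM pre-let-7 by 0.2 nM HEK293-derived Zcchc11 fragment with 5 uM UTP at room temperature. Tail growth appears as fluorescein quenching by an annealing rhodamine-A20 probe.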
`Cc1cc2c(=O)c(C(=O)O)cn(-c3ccc(N4CC(N(C)C)C4)nc3)c2cc1N1C[C@@H](F)C[C@@H]1COc1ncccc1Cl` [Example 467, 7-((2R,4S)-2-(((3-chloropyridin-2-yl)oxy)methyl)-4-fluoropyrrolidin-1-yl)-1-(6-(3-(dimethylamino)azetidin-1-yl)pyridin-3-yl)-6-methyl-4-oxo-1,4-dihydroquinoline-3-carboxylic acid] showed an IC50 of no more than 1 µM.
In the case of `O=C(O)c1cn(-c2cnccn2)c2cc(N3C[C@@H](F)C[C@H]3COc3ncccc3Cl)c(Cl)cc2c1=O` [Example 468, 6-chloro-7-[(2S,4S)-2-{[(3-chloropyridin-2-yl)oxy]methyl}-4-fluoropyrrolidin-1-yl]-4-oxo-1-(pyrazin-2-yl)-1,4-dihydroquinoline-3-carboxylic acid], the IC50 is reported as 10 to 50 µM.
`O=C(O)c1cn(C2CCc3nccn3C2)c2cc(N3CCC[C@@H]3COc3ncccc3Cl)c(Cl)cc2c1=O` (stereo partly drawn) [Example 469, 6-chloro-7-((R)-2-(((3-chloropyridin-2-yl)oxy)methyl)pyrrolidin-1-yl)-4-oxo-1-(5,6,7,8-tetrahydroimidazo [1,2-a]pyridin-6-yl)-1,4-dihydroquinoline-3-carboxylic acid] was tested, and the IC50 was no more than 1 µM.
`COCCN1CC(n2cc(C(=O)O)c(=O)c3cc(Cl)c(N4CCC[C@@H]4COc4ncccc4Cl)cc32)C1` [Example 470, (R)-6-chloro-7-(2-(((3-chloropyridin-2-yl)oxy)methyl)pyrrolidin-1-yl)-1-(1-(2-methoxy-ethyl)azetidin-3-yl)-1-(1-(2-methoxyethyl)azetidin-3-yl)-4-oxo-1,4-dihydroquinoline-3-carboxylic acid] gave an IC50 of 1 to 10 µM.
`NC1CC(n2cc(C(=O)O)c(=O)c3cc(Cl)c(N4CCC[C@@H]4COc4ncccc4Cl)cc32)C1` (stereo partly drawn) [Example 471, (R)-1-(3-aminocyclobutyl)-6-chloro-7-(2-(((3-chloropyridin-2-yl)oxy)methyl)pyrrolidin-1-yl)-4-oxo-1,4-dihydroquinoline-3-carboxylic acid] was tested, and the IC50 was 1 to 10 µM.
Molecule `O=C(O)c1cn(-c2ccc(NS(=O)(=O)C3CC3)cc2)c2cc(N3CCC[C@@H]3COc3ncccc3Cl)c(Cl)cc2c1=O` [Example 472, 6-chloro-7-[(2R)-2-{[(3-chloropyridin-2-yl)oxy)methyl}pyrrolidin-1-yl]-1-(4-cyclopropane-sulfonamido-phenyl)-4-oxo-1,4-dihydroquinoline-3-carboxylic acid] has an IC50 of no more than 1 µM.
`Nc1cc(-n2cc(C(=O)O)c(=O)c3cc(Cl)c(N4CCC[C@@H]4COc4ncccc4Cl)cc32)ccn1` [Example 473, (R)-1-(2-aminopyridin-4-yl)-6-chloro-7-(2-(((3-chloropyridin-2-yl)oxy)methyl)pyrrolidin-1-yl)-4-oxo-1,4-dihydroquinoline-3-carboxylic acid] was tested, and the IC50 was no more than 1 µM.
`O=C(O)c1cn(-c2cc3cn[nH]c3cn2)c2cc(N3CCC[C@@H]3COc3ncccc3Cl)c(Cl)cc2c1=O` [Example 474, (R)-6-chloro-7-(2-(((3-chloropyridin-2-yl)oxy)methyl)pyrrolidin-1-yl)-4-oxo-1-(1H-pyrazolo[3,4-c]pyridin-5-yl)-1,4-dihydroquinoline-3-carboxylic acid] was tested, and the IC50 was no more than 1 µM.
`O=C(O)c1cn(-c2cnc3[nH]ncc3c2)c2cc(N3CCC[C@@H]3COc3ncccc3Cl)c(Cl)cc2c1=O` [Example 475, (R)-6-chloro-7-(2-(((3-chloropyridin-2-yl)oxy)methyl)pyrrolidin-1-yl)-4-oxo-1-(1H-pyrazolo[3,4-b]pyridin-5-yl)-1,4-dihydroquinoline-3-carboxylic acid] was tested, and the IC50 was no more than 1 µM.
Work on `CN(C)C1CN(c2ccc(-n3cc(C(=O)O)c(=O)c4cc(Cl)c(N5CCC[C@@H]5COc5ncccc5Cl)cc43)cn2)C1` [Example 476, (R)-6-chloro-7-(2-(((3-chloropyridin-2-yl)oxy)methyl)pyrrolidin-1-yl)-1-(6-(3-(dimethyl-amino)azetidin-1-yl)pyridin-3-yl)-4-oxo-1,4-dihydroquinoline-3-carboxylic acid] yielded an IC50 of no more than 1 µM.
Work on `CNC1CN(c2ccc(-n3cc(C(=O)O)c(=O)c4cc(Cl)c(N5CCC[C@@H]5COc5ncccc5Cl)cc43)cn2)C1` [Example 477, (R)-6-chloro-7-(2-(((3-chloropyridin-2-yl)oxy)methyl)pyrrolidin-1-yl)-1-(6-(3-(methyl-amino)azetidin-1-yl)pyridin-3-yl)-4-oxo-1,4-dihydroquinoline-3-carboxylic acid] yielded an IC50 of no more than 1 µM.
Work on `O=C(O)c1cn(-c2ccc(N3CCNCC3)nc2)c2cc(N3CCC[C@@H]3COc3ncccc3Cl)c(Cl)cc2c1=O` [Example 478, (R)-6-chloro-7-(2-(((3-chloropyridin-2-yl)oxy)methyl)pyrrolidin-1-yl)-4-oxo-1-(6-(piperazin-1-yl)pyridin-3-yl)-1,4-dihydroquinoline-3-carboxylic acid] yielded an IC50 of no more than 1 µM.
`O=C(O)c1cn(-c2cnn(CCN3CCC3)c2)c2cc(N3CCC[C@@H]3COc3ncccc3Cl)c(Cl)cc2c1=O` [Example 479, (R)-1-(1-(2-(azetidin-1-yl)ethyl)-1H-pyrazol-4-yl)-6-chloro-7-(2-(((3-chloropyridin-2-yl)oxy)methyl)pyrrolidin-1-yl)-4-oxo-1,4-dihydroquinoline-3-carboxylic acid] showed an IC50 of no more than 1 µM.
`CNCCOc1ccc(-n2cc(C(=O)O)c(=O)c3cc(Cl)c(N4CCC[C@@H]4COc4ncccc4Cl)cc32)cn1` [Example 480, (R)-6-chloro-7-(2-(((3-chloropyridin-2-yl)oxy)methyl)pyrrolidin-1-yl)-1-(6-(2-(methyl-amino)ethoxy)pyridin-3-yl)-4-oxo-1,4-dihydroquinoline-3-carboxylic acid hydrochloride] was tested, and the IC50 was no more than 1 µM.
With `COCCNc1cnc(-n2cc(C(=O)O)c(=O)c3cc(Cl)c(N4CCC[C@@H]4COc4ncccc4Cl)cc32)cn1` [Example 481, 6-chloro-7-[(2R)-2-{[(3-chloropyridin-2-yl)oxy]methyl}pyrrolidin-1-yl]-1-{5-[(2-methoxyethyl)amino]pyrazin-2-yl}-4-oxo-1,4-dihydroquinoline-3-carboxylic acid] the IC50 was no more than 1 µM.
Work on `COCCN1CC2(CC(n3cc(C(=O)O)c(=O)c4cc(Cl)c(N5CCC[C@@H]5COc5ncccc5Cl)cc43)C2)C1` [Example 482, (R)-6-chloro-7-(2-(((3-chloropyridin-2-yl)oxy)methyl)pyrrolidin-1-yl)-1-(2-(2-methoxy-ethyl)-2-azaspiro[3.3]heptan-6-yl)-4-oxo-1,4-dihydroquinoline-3-carboxylic acid] yielded an IC50 of 1 to 10 µM.
For `Nc1cnc(-n2cc(C(=O)O)c(=O)c3cc(Cl)c(N4CCC[C@@H]4COc4ncccc4Cl)cc32)cn1` [Example 483, 1-(5-aminopyrazin-2-yl)-6-chloro-7-[(2R)-2-{[(3-chloropyridin-2-yl)oxy]methyl}pyrrolidin-1-yl]-4-oxo-1,4-dihydroquinoline-3-carboxylic acid], the IC50 was no more than 1 µM.
`CC(C)(C)OC(=O)NC1CC(n2cc(C(=O)O)c(=O)c3cc(Cl)c(N4CCC[C@@H]4COc4ncccc4Cl)cc32)C1` (stereo partly drawn) [Example 484, (R)-1-(3-((tert-butoxycarbonyl)amino)cyclobutyl)-6-chloro-7-(2-(((3-chloropyridin-2-yl)oxy)methyl)pyrrolidin-1-yl)-4-oxo-1,4-dihydroquinoline-3-carboxylic acid] gave an IC50 of no more than 1 µM.
For `O=C(O)c1cn(-c2ncco2)c2cc(N3CCC[C@@H]3COc3ncccc3Cl)c(Cl)cc2c1=O` [Example 485, (R)-6-chloro-7-(2-(((3-chloropyridin-2-yl)oxy)methyl)pyrrolidin-1-yl)-1-(oxazol-2-yl)-4-oxo-1,4-dihydroquinoline-3-carboxylic acid], the IC50 was no more than 1 µM.
`O=C(O)c1cn(-c2ccc3[nH]ncc3n2)c2cc(N3CCC[C@@H]3COc3ncccc3Cl)c(Cl)cc2c1=O` [Example 486, 6-chloro-7-[(2R)-2-{[(3-chloropyridin-2-yl)oxy]methyl}pyrrolidin-1-yl]-4-oxo-1-{1H-pyrazolo[4,3-b]pyridin-5-yl}-1,4-dihydroquinoline-3-carboxylic acid] gave an IC50 of no more than 1 µM.
